Data as given in patent US10420341B2, “Herbicidal phenylpyrimidines” (BASF SE, priority 2015, dated 2019).

Columns and labels:
APESV = experiment: greenhouse pre-emergence herbicidal test; assay type: in vivo, Apera spica-venti; conditions: pre-emergence method, scale from 0 to 100
Description: (§1) The seeds of the test plants were sown separately for each species. For the pre-emergence treatment, the active ingredients, which had been suspended or emulsified in water, were applied directly after sowing by means of finely distributing nozzles. The containers were irrigated gently to promote germination and growth and subsequently covered with transparent plastic hoods until the plants had rooted. This cover caused uniform germination of the test plants, unless this had been impaired by the active ingredients. Depending on the species, the plants were kept at 10-25° C. or 20-35° C., respectively. The test period extended over 2 to 4 weeks. During this time, the plants were tended, and their response to the individual treatments was evaluated. Evaluation was carried out using a scale from 0 to 100. 100 means no emergence of the plants, or complete destruction of at least the aerial moieties, and 0 means no damage, or normal course of growth. […] The plants used in the greenhouse experiments were of the following species: [table]

ECHCG [1] = experiment: greenhouse pre-emergence herbicidal test; assay type: in vivo, Echinocloa crus-galli; conditions: pre-emergence method, scale from 0 to 100
Description: as §1

ECHCG [2] = experiment: greenhouse post-emergence herbicidal test; assay type: in vivo, Echinocloa crus-galli; conditions: post-emergence method, scale from 0 to 100
Description: (§2) The seeds of the test plants were sown separately for each species. For the post-emergence treatment, the test plants were first grown to a height of 3 to 15 cm, depending on the plant habit, and only then treated with the active ingredients which had been suspended or emulsified in water. For this purpose, the test plants were either sown directly and grown in the same containers, or they were first grown separately as seedlings and transplanted into the test containers a few days prior to treatment. Depending on the species, the plants were kept at 10-25° C. or 20-35° C., respectively. The test period extended over 2 to 4 weeks. During this time, the plants were tended, and their response to the individual treatments was evaluated. Evaluation was carried out using a scale from 0 to 100. 100 means no emergence of the plants, or complete destruction of at least the aerial moieties, and 0 means no damage, or normal course of growth. […] The plants used in the greenhouse experiments were of the following species: [table]

ALOMY = experiment: greenhouse post-emergence herbicidal test; assay type: in vivo, Alopercurus myosuroides; conditions: post-emergence method, scale from 0 to 100
Description: as §2

SMILES | herbicidal activity against APESV (APESV; application rate 1000 g/ha) | herbicidal activity against ECHCG (ECHCG [1]; application rate 1000 g/ha) | also measured
CCc1ncc(-c2cc(C)ccc2Cl)c(C(=O)O)n1 [example 7] | very good (a very good herbicidal activity is given at values of at least 85) | very good (a very good herbicidal activity is given at values of at least 85) | –
CCc1ncc(-c2cc(F)ccc2C)c(C(=O)O)n1 [example 10] | – | – | herbicidal activity against APESV (APESV; application rate 500 g/ha): very good (a very good herbicidal activity is given at values of at least 85); herbicidal activity against ECHCG (ECHCG [1]; application rate 500 g/ha): very good (a very good herbicidal activity is given at values of at least 85)
CCc1ncc(-c2ccccc2Cl)c(C(=O)OC)n1 [example 19] | very good (a very good herbicidal activity is given at values of at least 85) | very good (a very good herbicidal activity is given at values of at least 85) | –
CCc1ncc(-c2cc(C)ccc2Cl)c(C(=O)OC)n1 [example 20] | very good (a very good herbicidal activity is given at values of at least 85) | very good (a very good herbicidal activity is given at values of at least 85) | herbicidal activity against ECHCG (ECHCG [2]; application rate 1000 g/ha): good (A good herbicidal activity is given at values of at least 70)
CCc1ncc(-c2cc(Cl)ccc2C)c(C(=O)OC)n1 [example 22] | good (A good herbicidal activity is given at values of at least 70) | good (A good herbicidal activity is given at values of at least 70) | –
CCc1ncc(-c2cc(C)ccc2C)c(C(=O)OC)n1 [example 23] | very good (a very good herbicidal activity is given at values of at least 85) | very good (a very good herbicidal activity is given at values of at least 85) | –
COC(=O)c1nc(C(C)C)ncc1-c1cc(C)ccc1C [example 38] | good (A good herbicidal activity is given at values of at least 70) | very good (a very good herbicidal activity is given at values of at least 85) | –
COc1ncc(-c2ccccc2C)c(C(=O)O)n1 [example 52] | – | – | herbicidal activity against ALOMY (ALOMY; application rate 2000 g/ha): good (A good herbicidal activity is given at values of at least 70); herbicidal activity against APESV (APESV; application rate 2000 g/ha): very good (a very good herbicidal activity is given at values of at least 85); herbicidal activity against ECHCG (ECHCG [1]; application rate 2000 g/ha): good (A good herbicidal activity is given at values of at least 70)
COc1ncc(-c2ccc(C)cc2C)c(C(=O)O)n1 [example 57] | very good (a very good herbicidal activity is given at values of at least 85) | very good (a very good herbicidal activity is given at values of at least 85) | –
COC(=O)c1nc(OC)ncc1-c1cc(F)ccc1C [example 62] | very good (a very good herbicidal activity is given at values of at least 85) | good (A good herbicidal activity is given at values of at least 70) | –
COc1ccc(F)c(-c2cnc(SC)nc2C(=O)O)c1 [example 83] | – | – | herbicidal activity against ECHCG (ECHCG [2]; application rate 2000 g/ha): good (A good herbicidal activity is given at values of at least 70)
COc1ccc(-c2cnc(SC)nc2C(=O)O)c(C)c1 [example 100] | – | – | herbicidal activity against ECHCG (ECHCG [2]; application rate 2000 g/ha): good (A good herbicidal activity is given at values of at least 70)
O=C(O)c1nc(C2CC2)ncc1-c1cc(Br)ccc1F [example 135] | very good (a very good herbicidal activity is given at values of at least 85) | – | herbicidal activity against ALOMY (ALOMY; application rate 1000 g/ha): herbicidal activity
COc1ccc(Br)c(-c2cnc(C3CC3)nc2C(=O)O)c1 [example 153] | very good (a very good herbicidal activity is given at values of at least 85) | – | herbicidal activity against ECHCG (ECHCG [2]; application rate 1000 g/ha): very good (a very good herbicidal activity is given at values of at least 85)
N#Cc1ccccc1-c1cnc(C2CC2)nc1C(=O)O [example 154] | – | – | herbicidal activity against ALOMY (ALOMY; application rate 500 g/ha): very good (a very good herbicidal activity is given at values of at least 85); herbicidal activity against ECHCG (ECHCG [2]; application rate 500 g/ha): good (A good herbicidal activity is given at values of at least 70); herbicidal activity against APESV (APESV; application rate 500 g/ha): very good (a very good herbicidal activity is given at values of at least 85); herbicidal activity against ECHCG (ECHCG [1]; application rate 500 g/ha): very good (a very good herbicidal activity is given at values of at least 85)
O=C(O)c1nc(C2CC2)ncc1-c1ccccc1[N+](=O)[O-] [example 160] | very good (a very good herbicidal activity is given at values of at least 85) | very good (a very good herbicidal activity is given at values of at least 85) | herbicidal activity against ECHCG (ECHCG [2]; application rate 1000 g/ha): very good (a very good herbicidal activity is given at values of at least 85)
COc1ccc(C)c(-c2cnc(C3CC3)nc2C(=O)O)c1 [example 166] | – | – | herbicidal activity against ALOMY (ALOMY; application rate 500 g/ha): good (A good herbicidal activity is given at values of at least 70); herbicidal activity against ECHCG (ECHCG [2]; application rate 500 g/ha): good (A good herbicidal activity is given at values of at least 70); herbicidal activity against APESV (APESV; application rate 500 g/ha): very good (a very good herbicidal activity is given at values of at least 85); herbicidal activity against ECHCG (ECHCG [1]; application rate 500 g/ha): very good (a very good herbicidal activity is given at values of at least 85)
Cc1c(F)cccc1-c1cnc(C2CC2)nc1C(=O)O [example 170] | very good (a very good herbicidal activity is given at values of at least 85) | very good (a very good herbicidal activity is given at values of at least 85) | herbicidal activity against ALOMY (ALOMY; application rate 1000 g/ha): very good (a very good herbicidal activity is given at values of at least 85); herbicidal activity against ECHCG (ECHCG [2]; application rate 1000 g/ha): good (A good herbicidal activity is given at values of at least 70)
CC(C)c1ccccc1-c1cnc(C2CC2)nc1C(=O)O [example 175] | very good (a very good herbicidal activity is given at values of at least 85) | very good (a very good herbicidal activity is given at values of at least 85) | –
COc1ccccc1-c1cnc(C2CC2)nc1C(=O)O [example 177] | very good (a very good herbicidal activity is given at values of at least 85) | very good (a very good herbicidal activity is given at values of at least 85) | herbicidal activity against ECHCG (ECHCG [2]; application rate 1000 g/ha): good (A good herbicidal activity is given at values of at least 70)
COc1ccc(OC)c(-c2cnc(C3CC3)nc2C(=O)O)c1 [example 179] | – | – | herbicidal activity against ECHCG (ECHCG [2]; application rate 2000 g/ha): very good (a very good herbicidal activity is given at values of at least 85); herbicidal activity against APESV (APESV; application rate 2000 g/ha): very good (a very good herbicidal activity is given at values of at least 85)
COCOc1ccccc1-c1cnc(C2CC2)nc1C(=O)O [example 180] | very good (a very good herbicidal activity is given at values of at least 85) | very good (a very good herbicidal activity is given at values of at least 85) | herbicidal activity against ECHCG (ECHCG [2]; application rate 1000 g/ha): very good (a very good herbicidal activity is given at values of at least 85)
C=Cc1ccccc1-c1cnc(C2CC2)nc1C(=O)O [example 183] | – | – | herbicidal activity against APESV (APESV; application rate 500 g/ha): very good (a very good herbicidal activity is given at values of at least 85); herbicidal activity against ECHCG (ECHCG [1]; application rate 500 g/ha): very good (a very good herbicidal activity is given at values of at least 85)
O=C(O)c1nc(C2CC2)ncc1-c1ccccc1C1CC1 [example 187] | very good (a very good herbicidal activity is given at values of at least 85) | very good (a very good herbicidal activity is given at values of at least 85) | herbicidal activity against ECHCG (ECHCG [2]; application rate 1000 g/ha): very good (a very good herbicidal activity is given at values of at least 85)
COC(=O)c1nc(C2CC2)ncc1-c1cc(C)ccc1C [example 228] | – | – | herbicidal activity against ALOMY (ALOMY; application rate 2000 g/ha): very good (a very good herbicidal activity is given at values of at least 85); herbicidal activity against ECHCG (ECHCG [2]; application rate 2000 g/ha): very good (a very good herbicidal activity is given at values of at least 85); herbicidal activity against APESV (APESV; application rate 2000 g/ha): very good (a very good herbicidal activity is given at values of at least 85)
COC(=O)c1nc(C2CC2)ncc1-c1ccc(OC)cc1Cl [example 294] | – | – | herbicidal activity against ECHCG (ECHCG [2]; application rate 1000 g/ha): good (A good herbicidal activity is given at values of at least 70)
COc1ccc(-c2cnc(C3CC3)nc2C(=O)O)c(Cl)c1 [example 296] | very good (a very good herbicidal activity is given at values of at least 85) | – | –
COc1ccc(-c2cnc(C3CC3)nc2C(=O)O)c(F)c1 [example 297] | very good (a very good herbicidal activity is given at values of at least 85) | – | –
COc1cc(F)ccc1-c1cnc(C2CC2)nc1C(=O)O [example 301] | good (A good herbicidal activity is given at values of at least 70) | very good (a very good herbicidal activity is given at values of at least 85) | –
